ChEMBL document CHEMBL1201862, “PubChem BioAssay data set” (2004)
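The compound was tested at five concentrations on cells cultured in 96-well plates, with a 48-hour exposure period. GI50 = concentration required for 50% inhibition of growth.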 Activity calls are given as the source filed them. Rule as the data show it: active = GI50 up to about 1.1 µM and inactive = higher.

Assays:
Experiment in all cases: NCI-60 cell line screen, 48 h
SNB-78 = tested on: SNB-78
M19-MEL = tested on: M19-MEL
KM-20L2 = tested on: KM-20L2
HOP-18 = tested on: HOP-18
DMS-114 = tested on: DMS-114
RXF 631 = tested on: RXF 631
DLD-1 = tested on: DLD-1
XF498 = tested on: XF498
LXFL 529 = tested on: LXFL 529

SMILES | GI50 (SNB-78) | GI50 (M19-MEL) | GI50 (KM-20L2) | GI50 (HOP-18) | GI50 (DMS-114) | GI50 (RXF 631) | GI50 (DLD-1) | GI50 (XF498) | GI50 (LXFL 529)
O=[N+]([O-])c1nccn1CC(O)CN1CC1 (stereo unspecified) | 78 µM (inactive) | 63.4 µM (inactive) | 61.2 µM (inactive) | > 100 µM (inactive) | 50.7 µM (inactive) | 40 µM (inactive) | 69.3 µM (inactive) | > 100 µM (inactive) | 79.4 µM (inactive)
Cc1ccc(NC(=O)CCc2nnc(S)[nH]2)cc1 | > 100 µM (inactive) | > 100 µM (inactive) | 54.8 µM (inactive) | > 100 µM (inactive) | 39.5 µM (inactive) | > 100 µM (inactive) | > 100 µM (inactive) | > 100 µM (inactive) | > 100 µM (inactive)
Cc1cc(O)c(C=O)c(C)c1CCC1(C)C=Cc2cc(O)ccc2O1 (stereo unspecified) | 21.2 µM (inactive) | 27.7 µM (inactive) | 25.1 µM (inactive) | 18.3 µM (inactive) | 18.4 µM (inactive) | – | 19.6 µM (inactive) | 19.1 µM (inactive) | 15.7 µM (inactive)
CCOC(=O)C1=C(C)C2C3C(=O)OC(=O)C3C1(C)C1C(=O)OC(=O)C21 (stereo unspecified) | > 100 µM (inactive) | > 100 µM (inactive) | > 100 µM (inactive) | – | > 100 µM (inactive) | > 100 µM (inactive) | > 100 µM (inactive) | – | > 100 µM (inactive)
O=C(Nc1ccc(Cl)cc1Cl)C1C(=O)C(=O)N(c2ccc(Cl)cc2Cl)C1=O (stereo unspecified) | > 100 µM (inactive) | > 100 µM (inactive) | > 100 µM (inactive) | > 100 µM (inactive) | > 100 µM (inactive) | – | > 100 µM (inactive) | – | > 100 µM (inactive)
COc1cc(OC)c2ssc3c(OC)cc(OC)c4ssc1c2-c43 | > 100 µM (inactive) | > 100 µM (inactive) | > 100 µM (inactive) | > 100 µM (inactive) | > 100 µM (inactive) | – | > 100 µM (inactive) | > 100 µM (inactive) | > 100 µM (inactive)
COC(=O)C1=CC(O)CCC1c1ccc(OC)cc1 (stereo unspecified) | > 100 µM (inactive) | > 100 µM (inactive) | > 100 µM (inactive) | > 100 µM (inactive) | > 100 µM (inactive) | – | > 100 µM (inactive) | – | > 100 µM (inactive)
CCOC(=O)/C=C1\Nc2ccccc2-n2nnnc21 | > 100 µM (inactive) | > 100 µM (inactive) | > 100 µM (inactive) | > 100 µM (inactive) | > 100 µM (inactive) | – | > 100 µM (inactive) | – | > 100 µM (inactive)
CCCCCCCCCCCCCCCCNc1cccc2ccccc12 | > 100 µM (inactive) | > 100 µM (inactive) | > 100 µM (inactive) | – | > 100 µM (inactive) | – | > 100 µM (inactive) | – | > 100 µM (inactive)
Nc1cn(C2OC(CC(c3ccccc3)(c3ccccc3)c3ccccc3)C(O)C2O)c(=O)[nH]c1=O (stereo unspecified) | 67.9 µM (inactive) | 18.4 µM (inactive) | 22 µM (inactive) | 31.9 µM (inactive) | 15.5 µM (inactive) | 43.9 µM (inactive) | 24.5 µM (inactive) | 28.6 µM (inactive) | 31.8 µM (inactive)
Cc1nc(N)nc(N)c1CCCc1ccccc1 | 32.1 µM (inactive) | 9.95 µM (inactive) | 7.31 µM (inactive) | – | 4.48 µM (inactive) | – | 12.1 µM (inactive) | 35.7 µM (inactive) | 8.05 µM (inactive)
N#CCCN(CCC#N)C(=O)c1cccc(C(=O)N(CCC#N)CCC#N)c1 | > 100 µM (inactive) | > 100 µM (inactive) | > 42.8 µM (inactive) | – | > 100 µM (inactive) | – | > 88.9 µM (inactive) | > 100 µM (inactive) | 14.1 µM (inactive)
Fc1ccc(/N=C2C=C/C(=N\c3ccc(F)cc3)c3ccccc3\2)cc1 | > 100 µM (inactive) | > 100 µM (inactive) | > 100 µM (inactive) | > 100 µM (inactive) | – | – | > 100 µM (inactive) | > 100 µM (inactive) | > 100 µM (inactive)
CC(C)C1CC(O)O[C@@H]([C@@H](C)[C@H]2CC(=O)[C@@H]3[C@@H]4[C@@H](O)[C@H](O)[C@H]5[C@@H](O)[C@H](O)CC[C@]5(C)[C@H]4CC[C@]23C)C1 (stereo partly specified) | 38.9 µM (inactive) | 37.1 µM (inactive) | > 100 µM (inactive) | – | – | – | > 100 µM (inactive) | 18.9 µM (inactive) | > 100 µM (inactive)
COC(=O)C1C2C=CC(C2)N1[C@@H](C)c1ccccc1 (stereo partly specified) | > 100 µM (inactive) | > 100 µM (inactive) | > 100 µM (inactive) | > 100 µM (inactive) | – | – | > 100 µM (inactive) | – | > 100 µM (inactive)
Cc1cc2c(cc1C)[n+]([O-])c(C(=O)/C=C/c1ccccc1Cl)c(C)[n+]2[O-] | 33.7 µM (inactive) | 36 µM (inactive) | 35.2 µM (inactive) | 29.3 µM (inactive) | 21.8 µM (inactive) | 24.7 µM (inactive) | 19.5 µM (inactive) | 18.5 µM (inactive) | 18.2 µM (inactive)
CSc1ccc(/C=C2\CN(C)C/C(=C\c3ccc(SC)cc3)C2=O)cc1 | 19.8 µM (inactive) | 35.1 µM (inactive) | 32.1 µM (inactive) | > 100 µM (inactive) | 24.9 µM (inactive) | – | 11.5 µM (inactive) | 18.9 µM (inactive) | 5.22 µM (inactive)
Fc1ccc(F)c(C2SCc3nc4ccccc4n32)c1 (stereo unspecified) | 52.5 µM (inactive) | 48.2 µM (inactive) | > 100 µM (inactive) | 89.1 µM (inactive) | 23.5 µM (inactive) | – | > 100 µM (inactive) | – | 53.3 µM (inactive)
O=C(O)C(Cc1ccccc1)N1C(=O)N/C(=C\c2ccc(F)cc2)C1=O (stereo unspecified) | 18.4 µM (inactive) | > 100 µM (inactive) | – | > 100 µM (inactive) | – | – | > 100 µM (inactive) | – | > 100 µM (inactive)
CN(C)CC(C)(C)C(/C=C/c1ccccc1)=N\Nc1ccccc1 | 11 µM (inactive) | 10 µM (inactive) | 0.0217 µM (active) | 15.3 µM (inactive) | 4.25 µM (inactive) | – | 0.199 µM (active) | – | 0.197 µM (active)
COc1cc(CNc2ccc(C(C)C)cc2)cc(OC)c1OC | 35.1 µM (inactive) | 17.1 µM (inactive) | 16.8 µM (inactive) | 34.1 µM (inactive) | 24.9 µM (inactive) | – | 24 µM (inactive) | 32.3 µM (inactive) | 18.9 µM (inactive)
N#C/C(=C1\SC(/N=N/c2ccccc2)C(=O)N1c1ccccc1)c1nc2ccccc2[nH]1 (stereo unspecified) | > 100 µM (inactive) | > 100 µM (inactive) | > 100 µM (inactive) | – | > 100 µM (inactive) | – | > 100 µM (inactive) | 17.7 µM (inactive) | > 100 µM (inactive)
O=C(CC1(O)C(=O)Nc2ccc([N+](=O)[O-])cc21)c1ccc2ccccc2c1 (stereo unspecified) | > 100 µM (inactive) | > 100 µM (inactive) | > 100 µM (inactive) | – | > 100 µM (inactive) | > 100 µM (inactive) | > 100 µM (inactive) | – | > 100 µM (inactive)
O=C(Nc1ccc(Cl)cc1Cl)C1C(=O)N(c2ccc(Cl)cc2Cl)C(=O)/C1=N\Nc1ccc([N+](=O)[O-])cc1[N+](=O)[O-] (stereo unspecified) | > 100 µM (inactive) | 59.3 µM (inactive) | 26.4 µM (inactive) | 17.9 µM (inactive) | 13.2 µM (inactive) | 62.2 µM (inactive) | 46.8 µM (inactive) | – | 13.9 µM (inactive)
CC(=O)C1=C(O)C(N)C2Cc3c(c(O)c4c(O)c(C)ccc4c3C)C(=O)C2(O)C1=O (stereo unspecified) | 2.17 µM (inactive) | 2.48 µM (inactive) | 2.85 µM (inactive) | 2.93 µM (inactive) | 2.38 µM (inactive) | 2.2 µM (inactive) | 2 µM (inactive) | 1.84 µM (inactive) | 2.66 µM (inactive)
O=C(/C=N/O)Nc1ccc(Cl)c(I)c1 | – | 22.4 µM (inactive) | 33 µM (inactive) | – | 16.6 µM (inactive) | – | 27.1 µM (inactive) | 21.6 µM (inactive) | 12.9 µM (inactive)
